target: Prostacyclin receptor (Homo sapiens, UniProt P43119); assay: IP Receptor Filter Binding Assay and cAMP Assay; settings: pH 7.4; 22 °C
Description: IP receptor binding activity was quantified via a filter binding assay measuring displacement of [3H]-Iloprost binding to human platelet membranes. Raw data were fit to the […] to calculate IC50 values. EC50/IC50 values were obtained from functional antagonism assay by measuring the inhibition of cAMP production induced by Iloprost in human erythroleukemia (HEL) cells using a Perkin-Elmer LANCETM cAMP detection kit.

Sequence of Prostacyclin receptor (P43119 whole entry): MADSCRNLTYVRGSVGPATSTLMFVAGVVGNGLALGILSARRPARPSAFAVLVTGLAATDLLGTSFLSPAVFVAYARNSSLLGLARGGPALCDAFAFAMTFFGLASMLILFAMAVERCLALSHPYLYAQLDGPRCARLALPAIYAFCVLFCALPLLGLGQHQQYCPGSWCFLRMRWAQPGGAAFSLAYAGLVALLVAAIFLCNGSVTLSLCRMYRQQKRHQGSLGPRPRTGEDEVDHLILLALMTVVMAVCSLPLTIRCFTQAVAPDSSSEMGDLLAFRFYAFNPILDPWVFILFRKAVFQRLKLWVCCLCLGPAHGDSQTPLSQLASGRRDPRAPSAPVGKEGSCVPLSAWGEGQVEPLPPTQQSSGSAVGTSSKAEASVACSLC

Compound | IC50
CC(=O)Nc1cccc(-c2ccc(Cc3ocnc3C(=O)NC(C)c3ccccc3)cc2)c1 (racemic) [5-{[4-(3-acetamidophenyl)phenyl]methyl}-N-(1-phenylethyl)-1,3-oxazole-4-carboxamide] | 278 nM
CC(=O)Nc1cccc(-c2ccc(Cc3ocnc3C(=O)NCCc3ccccc3)cc2)c1 [5-{[4-(3-acetamidophenyl)phenyl]methyl}-N-(2-phenylethyl)-1,3-oxazole-4-carboxamide] | 138 nM
CC(=O)Nc1cccc(-c2ccc(Cc3ocnc3C(=O)NC(C)C)cc2)c1 [5-{[4-(3-acetamidophenyl)phenyl]methyl}-N-(propan-2-yl)-1,3-oxazole-4-carboxamide] | 3580 nM
CC(=O)Nc1cccc(-c2ccc(Cc3ocnc3C(=O)NCCc3ccccn3)cc2)c1 [5-{[4-(3-acetamidophenyl)phenyl]methyl}-N-[2-(pyridin-2-yl)ethyl]-1,3-oxazole-4-carboxamide] | 1010 nM
CC(=O)Nc1cccc(-c2ccc(Cc3ocnc3C(=O)NCCc3cccnc3)cc2)c1 [5-{[4-(3-acetamidophenyl)phenyl]methyl}-N-[2-(pyridin-3-yl)ethyl]-1,3-oxazole-4-carboxamide] | 741 nM
CC(=O)Nc1cccc(-c2ccc(Cc3ocnc3C(=O)NCCc3ccncc3)cc2)c1 [5-{[4-(3-acetamidophenyl)phenyl]methyl}-N-[2-(pyridin-4-yl)ethyl]-1,3-oxazole-4-carboxamide] | 476 nM
CC(=O)Nc1cccc(-c2ccc(Cc3ocnc3C(=O)N[C@H]3C[C@@H]3c3ccccc3)cc2)c1 [5-{[4-(3-acetamidophenyl)phenyl]methyl}-N-[(1S,2R)-2-phenylcyclopropyl]-1,3-oxazole-4-carboxamide] | 358 nM
CC(=O)Nc1cccc(-c2ccc(Cc3ocnc3C(=O)NC[C@H](C)c3ccccc3)cc2)c1 [5-{[4-(3-acetamidophenyl)phenyl]methyl}-N-[(2R)-2-phenylpropyl]-1,3-oxazole-4-carboxamide] | 51 nM
CC(=O)Nc1cccc(-c2ccc(Cc3ocnc3C(=O)NC[C@@H](C)c3ccccc3)cc2)c1 [5-{[4-(3-acetamidophenyl)phenyl]methyl}-N-[(2S)-2-phenylpropyl]-1,3-oxazole-4-carboxamide] | 296 nM
CNC(=O)c1ncoc1Cc1ccc(-c2cccc(NC(C)=O)c2)cc1 [5-{[4-(3-acetamidophenyl)phenyl]methyl}-N-methyl-1,3-oxazole-4-carboxamide] | 3310 nM
CC(=O)Nc1cccc(-c2ccc(Cc3ocnc3C(=O)N(C)CCc3ccccc3)cc2)c1 [5-{[4-(3-acetamidophenyl)phenyl]methyl}-N-methyl-N-(2-phenylethyl)-1,3-oxazole-4-carboxamide] | 2130 nM
CC(=O)Nc1cccc(-c2ccc(Cc3ocnc3C(=O)Nc3ccccc3)cc2)c1 [5-{[4-(3-acetamidophenyl)phenyl]methyl}-N-phenyl-1,3-oxazole-4-carboxamide] | 828 nM
CC(=O)Nc1cccc(-c2ccc(Cc3ocnc3C(=O)N[C@H](Cc3ccccc3)C(=O)O)cc2)c1 [(2R)-2-[(5-{[4-(3-acetamidophenyl)phenyl]methyl}-1,3-oxazol-4-yl)formamido]-3-phenylpropanoic acid] | 831 nM
CC(=O)Nc1cccc(-c2ccc(Cc3ocnc3C(=O)N[C@@H](Cc3ccccc3)C(=O)O)cc2)c1 [(2S)-2-[(5-{[4-(3-acetamidophenyl)phenyl]methyl}-1,3-oxazol-4-yl)formamido]-3-phenylpropanoic acid] | 16 nM
CC(=O)Nc1cccc(-c2ccc(Cc3ocnc3C(=O)NCCN(C)C)cc2)c1 [N-[2-(dimethylamino)ethyl]-5-{[4-(3-acetamidophenyl)phenyl]methyl}-1,3-oxazole-4-carboxamide] | 3310 nM
CC(=O)Nc1cccc(-c2ccc(Cc3ocnc3C(=O)NCc3ccccc3)cc2)c1 [N-benzyl-5-{[4-(3-acetamidophenyl)phenyl]methyl}-1,3-oxazole-4-carboxamide] | 66 nM

same assay, conditions: pH 7.4; 22 °C; read-out: IC50

Compound | IC50
CC(=O)Nc1cccc(-c2ccc(Cc3ocnc3C(=O)NC(C)C)cc2)c1 [5-{[4-(3-acetamidophenyl)phenyl]methyl}-N-(propan-2-yl)-1,3-oxazole-4-carboxamide] | 12400 nM
